IC50 and inhibition data for 23 compounds are collected here from US6380243B1, “Aminopyridine-containing thiourea inhibitors of herpes viruses” (American Home Products Corporation, priority 1998, dated 2002).

Values after ≈ are worked out from the molar mass of the structure shown.

The subject of test [1] is VZV strain Ellen. The test is described as follows: VZV Antiviral (ELISA) Assay. The class given is cell-based, varicella-zoster virus. The settings on record: Human alphaherpesvirus 3, 72 h; for IC50: human foreskin fibroblast cells, three days, read-out: IC50 (ug/ml) VZV; for inhibition at 10 µg/mL: read-out: % inhibition 10 ug/ml VZV, 10 ug/ml, human foreskin fibroblast cells, three days. As for the experimental part:
For the generation of stock VZV to be used in the assay, VZV strain Ellen (ATCC #VR-1367) is used to infect human foreskin fibroblast (HFF) cells at low multiplicity (less than 0.1) and incubated overnight at 37° C. in 5% CO2. After the overnight incubation, the mixture of uninfected and VZV-infected HFF infected cells are then harvested and added to each well of 96-well plates (3.5×10^4 cells in 100 1μl DMEM supplemented with 2% FBS) which contain test compound or the reference standard drug control (in 100 μl DMEM supplemented with 2% FBS per well). These cells are incubated for three days at 37° C. in 5% CO2, then fixed for ELISA assay. The primary antibody is murine anti-VZV glycoprotein II monoclonal antibody (Applied Biosystems, Inc. #13-145-100) and the secondary antibody is goat anti-mouse IgG linked to β-galactosidase. Thus the extent of viral replication is determined by assessing β-galactosidase activity by quantifying the generation of the 4-methyl umbelliferone fluorescent cleavage product after addition of the methyl umbelliferyl-β-D-galactoside (Sigma #M1633) substrate on a microfluorimeter (365 nm for excitation 450 nm for emission). Antiviral activity (IC50) of the test compound is determined by comparing the flourescence obtained in absence of compound to that obtained the presence of compound.
(In general: In an ELISA, binding on a coated surface is turned into a signal by an enzyme label.)

Test [2] concerns HCMV wild-type. The test is described as follows: HCMV yield assay. The settings on record: Human betaherpesvirus 5, Fibroblast; human foreskin fibroblasts; reduction of virus yield by 50%; read-out: IC50 (ug/ml) HCMV. The class given is cell-based, human cytomegalovirus. As for the experimental part: Yield assay. Monolayer cultures of human foreskin fibroblasts are infected with HCMV wild-type, typically at a multiplicity of infection equal to 0.2, in the presence of inhibitor compound (varying concentrations). At three days post-infection, total virus produced in these cultures (i.e. virus yield) is assessed by harvesting and titering the virus in 12-well plates of cultured human foreskin fibroblasts (done in the absence of inhibitor). Plaques are quantified at 2 weeks post-infection. An inhibitor of HCMV is identified by the reduction in titer of virus yield in the presence, compared to the titer in the absence of compound. In this assay, the relative anti-HCMV activity of an inhibitor is typically determined by calculating the IC50 or IC90 value, that is, the amount of compound required to reduce the virus yield by 50% or 90%, respectively. Table I describes IC50 data for compounds tested against HCMV.

In test [3] the test system is HSV-1. The experiment in a line: HSV Antiviral (ELISA) Assay. The class given is cell-based, herpes simplex virus type 1. The settings on record: Human alphaherpesvirus 1, Vero cells, HSV-1, about 24 hours post-infection, read-out: IC50 (ug/ml) HSV. As to the method:
Vero cells (ATCC #CCL-81) are plated on 96-well tissue culture plates at 3.5×10^4 cells per 100 μl tissue culture DMEM (Dulbecco's modified Eagle media) supplemented with 2% fetal bovine serum (FBS) in each well. After overnight incubation @37° C. (in 5% CO2) and 30 minutes prior to infection with HSV-1 (multiplicity of infection equal to 0.006), cells are either untreated, or treated with test compound (multiple concentrations) or reference standard drug control. After approximately 24 hours post-infection incubation @37° C. (in 5% CO2), cells are fixed for ELISA assay. The primary antibody is murine anti-HSV glycoprotein D monoclonal primary antibody and the secondary antibody is goat anti-mouse IgG linked to β-galactosidase. Thus the extent of viral replication is determined by assessing β-galactosidase activity by quantifying the generation of the 4-methyl umbelliferone fluorescent cleavage product after addition of the methyl umbelliferyl-β-D-galactoside (Sigma #M1633) substrate on a microfluorimeter (365 nm for excitation and 450 nm for emission). Antiviral activity (IC50) of the test compound is determined by comparing the flourescence obtained in absence of compound to that obtained in the presence of compound.

On to `O=C(Nc1ccc(NC(=S)Nc2cncc(C(F)(F)F)c2)cc1)c1csnn1` [Example 629, [1,2,3]Thiadiazole-4-carboxylic acid {4-[3-(5-trifluoromethyl-pyridin-3-yl)-thioureido]-phenyl}-amide], for which the IC50 is greater than 10 µg/mL in test [1], 0.5 µg/mL (≈ 1.18 µM) in test [2] and greater than 10 µg/mL in test [3].

Take `CC(NC(=S)Nc1ccc(NC(=O)c2ccccc2F)cc1)c1nccs1` (stereo not drawn) [Example 1093, 2-Fluoro-N-{4-[3-(1-thiazol-2-yl-ethyl)-thioureido]-phenyl}-benzamide]: the IC50 in test [1], in test [2] and in test [3] was greater than 10 µg/mL in each case.

Turning to `O=C(Nc1ccc(NC(=S)NCc2ccncc2)cc1)c1csnn1` [Example 660, [1,2,3]Thiadiazole-4-carboxylic acid [4-(3-pyridin-4-ylmethyl-thioureido)-phenyl]-amide], the figures for the IC50 in test [2] and in test [3] were greater than 0.5 µg/mL and 10 µg/mL (≈ 27 µM), respectively.

`CC(NC(=S)Nc1ccc(NC(=O)c2ccccc2F)cc1)c1ccnc2ccccc12` (stereo not drawn) [Example 1096, 2-Fluoro-N-{4-[3-(1-quinolin-4-yl-ethyl)-thioureido]-phenyl}-benzamide]: the IC50 in test [1] was 6.7 µg/mL (≈ 15.1 µM); in test [2], 5.7 µg/mL (≈ 12.8 µM); in test [3], greater than 10 µg/mL.

With `Cc1ccc(S(=O)(=O)n2c(C(C)NC(=S)Nc3ccc(NC(=O)c4ccccc4F)cc3)cc3ccccc32)cc1` (stereo not drawn) [Example 1094, 2-Fluoro-N-[4-(3-{1-[1-(toluene-4-sulfonyl)-1H-indol-2-yl]-ethyl}-thioureido)-phenyl]-benzamide], the IC50 is greater than 7.5 µg/mL in test [1], greater than 10 µg/mL in test [2] and greater than 10 µg/mL in test [3].

For `O=C(Nc1ccc(NC(=S)Nc2ccccn2)cc1)c1ccco1` [Example 426, Furan-2-carboxylic acid [4-(3-pyridin-2-yl-thioureido)-phenyl]-amide], the IC50 in test [1] is 1.8 µg/mL (≈ 5.32 µM); in test [2] it was 1.6 µg/mL (≈ 4.73 µM); in test [3], greater than 10 µg/mL. Moreover, the inhibition at 10 µg/mL in test [1] came out at 2%.

For the compound `O=C(Nc1ccc(NC(=S)Nc2ccccn2)cc1)c1ccccc1F` [Example 443, 2-Fluoro-N-[4-(3-pyridin-2-yl-thioureido)-phenyl]-benzamide], the IC50 in test [1], in test [2] and in test [3] was greater than 10 µg/mL each time. Also, in test [1], the inhibition at 10 µg/mL was 0%.

As to `O=C(Nc1ccc(NC(=S)Nc2ccc3[nH]ncc3c2)cc1)c1ccccc1F` [Example 483, 2-Fluoro-N-{4-[3-(1H-indazol-5-yl)-thioureido]-phenyl}-benzamide], the IC50 was greater than 10 µg/mL in test [1], 5 µg/mL (≈ 12.3 µM) in test [2] and 1.2 µg/mL (≈ 2.96 µM) in test [3]. In addition, the inhibition at 10 µg/mL in test [1] stood at 45%.

With `O=C(Nc1ccc(NC(=S)NCc2cccnc2)cc1)c1csnn1` [Example 634, [1,2,3]Thiadiazole-4-carboxylic acid [4-(3-pyridin-3-ylmethyl-thioureido)-phenyl]-amide], the results for the IC50 in test [1], in test [2] and in test [3] were greater than 10 µg/mL, 0.12 µg/mL (≈ 0.324 µM) and greater than 10 µg/mL, respectively.

Take `CC(NC(=S)Nc1ccc(NC(=O)c2ccccc2F)cc1)c1cnc2ccccc2c1` (stereo not drawn) [Example 1100, 2-Fluoro-N-{4-[3-(1-quinolin-3-yl-ethyl)-thioureido]-phenyl}-benzamide]: the IC50 in test [1] was 7.3 µg/mL (≈ 16.4 µM); in test [2], 4.6 µg/mL (≈ 10.3 µM); in test [3], greater than 10 µg/mL.

As for `O=C(Nc1ccc(NC(=S)NC2CCc3ccccc32)cc1)c1csnn1` (stereo not drawn) [Example 649, [1,2,3]Thiadiazole-4-carboxylic acid [4-(3-indan-1-yl-thioureido)-phenyl]-amide], the IC50 was 0.5 µg/mL (≈ 1.26 µM) in test [1], 0.02 µg/mL (≈ 0.0506 µM) in test [2] and greater than 10 µg/mL in test [3].

As to `O=C(Nc1ccc(NC(=S)Nc2ccncn2)cc1)c1ccco1` [Example 480, Furan-2-carboxylic acid [4-(3-pyrimidin-4-yl-thioureido)-phenyl]-amide], the IC50 in test [1] is greater than 10 µg/mL; in test [2], 7 µg/mL (≈ 20.6 µM); in test [3], greater than 10 µg/mL. In test [1], the inhibition at 10 µg/mL worked out at 42%.

With `O=C(Nc1ccc(NC(=S)NCc2ccncc2)cc1)c1ccccc1F` [Example 658, 2-Fluoro-N-[4-(3-pyridin-4-ylmethyl-thioureido)-phenyl]-benzamide], the IC50 is greater than 0.5 µg/mL in test [2] and 10 µg/mL (≈ 26.3 µM) in test [3].

Consider `CC(NC(=S)Nc1ccc(NC(=O)c2ccccc2F)cc1)c1ccsc1` (stereo not drawn) [Example 805, 2-Fluoro-N-{4-[3-(1-thiophen-3-yl-ethyl)-thioureido]-phenyl}-benzamide], for which the IC50 in test [1] was 1.6 µg/mL (≈ 4 µM); in test [2] it was 8 µg/mL (≈ 20 µM); in test [3], greater than 10 µg/mL.

With `CC(NC(=S)Nc1ccc(NC(=O)c2ccccc2F)cc1)c1ccc2ncccc2c1` (stereo not drawn) [Example 1099, 2-Fluoro-N-{4-[3-(1-quinolin-6-yl-ethyl)-thioureido]-phenyl}-benzamide], the IC50 in test [1] is greater than 7.5 µg/mL; in test [2], 5.6 µg/mL (≈ 12.6 µM); in test [3], greater than 10 µg/mL.

Consider `CC(NC(=S)Nc1ccc(NC(=O)c2ccccc2F)cc1)c1cc2ccccc2cn1` (stereo not drawn) [Example 1097, 2-Fluoro-N-{4-[3-(1-isoquinolin-3-yl-ethyl)-thioureido]-phenyl}-benzamide], for which the IC50 was 5.5 µg/mL (≈ 12.4 µM) in test [1], 4 µg/mL (≈ 9 µM) in test [2] and greater than 10 µg/mL in test [3].

Take `O=C(Nc1ccc(NC(=S)NCc2cccnc2)cc1)c1ccccc1F` [Example 632, 2-Fluoro-N-[4-(3-pyridin-3-ylmethyl-thioureido)-phenyl]-benzamide]: the IC50 in test [1], in test [2] and in test [3] was greater than 10 µg/mL each time.

With `O=C(Nc1ccc(NC(=S)NCc2cccnc2)cc1)c1ccco1` [Example 633, Furan-2-carboxylic acid [4-(3-pyridin-3-ylmethyl-thioureido)-phenyl]-amide], the IC50 in test [1] is greater than 10 µg/mL; in test [2], 0.34 µg/mL (≈ 0.965 µM); in test [3], greater than 10 µg/mL.

`O=C(Nc1ccc(NC(=S)Nc2cccnc2)cc1)c1ccccc1F` [Example 428, 2-Fluoro-N-[4-(3-pyridin-3-yl-thioureido)-phenyl]-benzamide]: the IC50 in test [1], in test [2] and in test [3] was greater than 10 µg/mL in each case. In addition, the inhibition at 10 µg/mL in test [1] is 0%.

Turning to `O=C(Nc1ccc(NC(=S)NCc2ccncc2)cc1)c1ccco1` [Example 659, Furan-2-carboxylic acid [4-(3-pyridin-4-ylmethyl-thioureido)-phenyl]-amide], the IC50 in test [2] was greater than 0.5 µg/mL; in test [3] it was greater than 10 µg/mL.

As to `CC(C)(C)n1ccnc1NC(=S)Nc1ccc(NC(=O)c2csnn2)cc1` [Example 608, [1,2,3]Thiadiazole-4-carboxylic acid {4-[3-(1-tert-butyl-1H-imidazol-2-yl)-thioureido]-phenyl}-amide], the IC50 in test [1] was greater than 10 µg/mL; in test [2], greater than 0.5 µg/mL; in test [3], 9 µg/mL (≈ 22.4 µM).

With `CC(NC(=S)Nc1ccc(NC(=O)c2ccccc2F)cc1)c1ccncc1` (stereo not drawn) [Example 803, 2-Fluoro-N-{4-[3-(1-pyridin-4-yl-ethyl)-thioureido]-phenyl}-benzamide], the IC50 in test [1] was greater than 7.5 µg/mL; in test [2], greater than 10 µg/mL; in test [3] it was greater than 10 µg/mL.

Regarding `O=C(Nc1ccc(NC(=S)Nc2ccncc2)cc1)c1ccco1` [Example 427, Furan-2-carboxylic acid [4-(3-pyridin-4-yl-thioureido)-phenyl]-amide], the figures for the IC50 in test [1], in test [2] and in test [3] were 1.2 µg/mL (≈ 3.55 µM), 0.8 µg/mL (≈ 2.36 µM) and greater than 10 µg/mL, respectively. Moreover, the inhibition at 10 µg/mL in test [1] amounted to 21%.
